Results on six compounds are retold here after PMC9157009, “Protein proximity networks and functional evaluation of the casein kinase 1 gamma family reveal unique roles for CK1γ3 in WNT signaling” (The Journal of Biological Chemistry, 2022).

Test [1] relates to β-catenin-dependent transcription. Particulars: siRNA screen, BAR firefly luciferase reporter, ref Biechele et al, cited from earlier work; for Average BAR firefly Luciferase (Raw): raw signal per siRNA target.
For test [2], the target named is T1, CAMK1B (Homo sapiens, UniProt Q6P2M8).
T1 construct: purchased Eurofins DiscoverX Corporation
T1 sequence (Q6P2M8 whole entry): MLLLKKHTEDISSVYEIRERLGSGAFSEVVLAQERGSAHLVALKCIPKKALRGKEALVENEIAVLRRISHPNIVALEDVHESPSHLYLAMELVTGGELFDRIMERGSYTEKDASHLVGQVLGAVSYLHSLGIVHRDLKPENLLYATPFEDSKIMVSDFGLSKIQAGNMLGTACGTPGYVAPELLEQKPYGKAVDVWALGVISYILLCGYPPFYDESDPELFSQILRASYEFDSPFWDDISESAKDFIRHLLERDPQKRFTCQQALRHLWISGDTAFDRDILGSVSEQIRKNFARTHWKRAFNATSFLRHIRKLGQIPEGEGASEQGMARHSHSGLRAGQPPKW
Description: scanMAX binding assay, CAMK1B. Particulars: Percent of Control; legend and method: 1 μM; read-out: CAMK1B PoC @ 1 µM. From the text:
(§1) As described previously, this commercial assay platform screens against 403 WT human kinases in binding assays and provides PoC values ([73]).

For test [3], the target named is T2, CK1γ1 (Homo sapiens, UniProt Q9HCP0).
T2 construct: purchased Eurofins
T2 sequence (Q9HCP0 whole entry): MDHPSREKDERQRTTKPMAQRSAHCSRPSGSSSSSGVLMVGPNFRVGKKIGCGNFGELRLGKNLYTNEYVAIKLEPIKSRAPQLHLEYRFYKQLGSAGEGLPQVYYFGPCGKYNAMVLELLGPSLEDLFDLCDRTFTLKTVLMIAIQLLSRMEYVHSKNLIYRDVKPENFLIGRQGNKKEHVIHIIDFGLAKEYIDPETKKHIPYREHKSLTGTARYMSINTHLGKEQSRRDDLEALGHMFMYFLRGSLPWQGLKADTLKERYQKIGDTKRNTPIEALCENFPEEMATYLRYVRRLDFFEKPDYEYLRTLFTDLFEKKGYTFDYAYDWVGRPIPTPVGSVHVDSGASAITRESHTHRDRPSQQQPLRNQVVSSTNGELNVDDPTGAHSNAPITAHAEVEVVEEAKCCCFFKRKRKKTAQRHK
Description: Eurofins kinase enzymatic radiometric assay, CK1γ1. Type of test: biochemical. Conditions: Km = ATP, 9-pt curve in duplicate. From the text:
(§2) Details related to the substrate used, protein constructs, controls, and assay protocol for each kinase assay are included on the Eurofins website: https://www.eurofinsdiscoveryservices.com/.

Test [4] addresses T3, DCAMKL3 (Homo sapiens, UniProt Q9C098).
T3 construct: purchased Eurofins DiscoverX Corporation
Description: scanMAX binding assay, DCAMKL3. Conditions: Percent of Control; legend and method: 1 μM; read-out: DCAMKL3 PoC @ 1 µM.
From the text: as §1

Test [5] concerns the target T4, CK1γ3 (Homo sapiens, UniProt Q9Y6M4).
T4 construct: purchased Eurofins
Description: Eurofins kinase enzymatic radiometric assay, CK1γ3. In kind it is biochemical. Conditions: Km = ATP, 9-pt curve in duplicate.
From the text: as §2

Test [6] concerns the target T5, GSK3α (Homo sapiens, UniProt P49840).
T5 construct: purchased Eurofins DiscoverX Corporation
Description: scanMAX binding assay, GSK3α. Conditions: Percent of Control; legend and method: 1 μM; read-out: GSK3α PoC @ 1 µM.
From the text: as §1

Test [7] concerns the target T6, ERK8 (Homo sapiens, UniProt Q8TD08).
T6 construct: purchased Eurofins DiscoverX Corporation
Description: scanMAX binding assay, ERK8. Particulars: Percent of Control; legend and method: 1 μM; read-out: ERK8 PoC @ 1 µM.
From the text: as §1

In test [8] the target is T7, PFTK1 (Homo sapiens, UniProt O94921).
T7 construct: purchased Eurofins DiscoverX Corporation
Description: scanMAX binding assay, PFTK1. Conditions: Percent of Control; legend and method: 1 μM; read-out: PFTK1 PoC @ 1 µM.
From the text: as §1

Test [9] deals with T8, PCTK2 (Homo sapiens, UniProt Q00537).
T8 construct: purchased Eurofins DiscoverX Corporation
T8 sequence (Q00537 whole entry): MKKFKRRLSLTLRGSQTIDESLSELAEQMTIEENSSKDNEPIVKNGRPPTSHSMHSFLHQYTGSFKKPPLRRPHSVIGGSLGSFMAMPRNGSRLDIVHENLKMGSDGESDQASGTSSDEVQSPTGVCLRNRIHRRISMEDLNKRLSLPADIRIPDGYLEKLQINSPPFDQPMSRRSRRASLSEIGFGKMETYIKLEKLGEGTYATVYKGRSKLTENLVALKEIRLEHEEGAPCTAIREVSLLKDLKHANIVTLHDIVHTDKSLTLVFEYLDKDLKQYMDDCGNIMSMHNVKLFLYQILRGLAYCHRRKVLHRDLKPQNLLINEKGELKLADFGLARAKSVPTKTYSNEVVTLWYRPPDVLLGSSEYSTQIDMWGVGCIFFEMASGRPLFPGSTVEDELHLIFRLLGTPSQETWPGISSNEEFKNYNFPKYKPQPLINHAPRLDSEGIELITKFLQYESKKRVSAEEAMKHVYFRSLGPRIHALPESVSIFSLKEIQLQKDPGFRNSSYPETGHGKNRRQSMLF
Description: scanMAX binding assay, PCTK2. Conditions: Percent of Control; legend and method: 1 μM; read-out: PCTK2 PoC @ 1 µM.
From the text: as §1

In test [10] the target is T9, DYRK1B (Homo sapiens, UniProt Q9Y463).
T9 construct: purchased Eurofins DiscoverX Corporation
T9 sequence (Q9Y463 whole entry): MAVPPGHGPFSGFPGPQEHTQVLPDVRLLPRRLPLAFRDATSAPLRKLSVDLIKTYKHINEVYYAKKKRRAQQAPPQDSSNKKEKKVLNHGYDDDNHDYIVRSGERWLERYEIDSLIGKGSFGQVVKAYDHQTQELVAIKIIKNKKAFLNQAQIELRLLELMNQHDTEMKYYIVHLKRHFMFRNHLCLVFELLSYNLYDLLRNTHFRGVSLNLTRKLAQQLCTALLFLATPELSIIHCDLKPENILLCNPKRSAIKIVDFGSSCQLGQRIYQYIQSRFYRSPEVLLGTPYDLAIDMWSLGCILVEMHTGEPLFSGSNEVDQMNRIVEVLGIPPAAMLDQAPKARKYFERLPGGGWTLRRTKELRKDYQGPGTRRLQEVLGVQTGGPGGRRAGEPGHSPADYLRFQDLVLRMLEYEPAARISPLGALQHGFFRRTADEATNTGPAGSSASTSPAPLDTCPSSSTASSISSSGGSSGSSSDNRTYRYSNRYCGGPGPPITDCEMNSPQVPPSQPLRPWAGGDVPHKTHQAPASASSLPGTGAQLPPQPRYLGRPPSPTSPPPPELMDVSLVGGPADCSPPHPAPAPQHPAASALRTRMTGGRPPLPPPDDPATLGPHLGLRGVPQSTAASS
Description: scanMAX binding assay, DYRK1B. Conditions: Percent of Control; legend and method: 1 μM; read-out: DYRK1B PoC @ 1 µM.
From the text: as §1

Test [11] deals with BAR reporter (β-catenin-dependent WNT signaling). Description: BAR luciferase transcriptional reporter assay in HEK293T B/R cells. Type of test: cell-based, human. Particulars: for activation of the BAR reporter: HEK293T B/R cells, 10 μM compound for 18 h, compared with dimethyl sulfoxide and FP1. How it is done: All luciferase reporter assays were performed as previously described ([15], [43]). […] In both loss-of-function and gain-of-function experiments, treatments (WNT3A CM or drug) were added 18 h before harvesting cells. Conditions were plated in triplicate, and Renilla normalized values were averaged across triplicates to yield the data presented and standard error. Each assay was repeated in biological triplicate, unless otherwise stated. Firefly luciferase and the Renilla control were detected using the Promega Dual-Luciferase Reporter Assay System per the manufacturer’s protocol (Promega; catalog no.: E1960). Plates were read on the Victor Nivo plate reader (PerkinElmer).
(Reporter assays use an easily measured gene product as a stand-in for the process of interest.)

For test [12], the target named is T2, CK1γ1. Description: scanMAX binding assay, CK1γ1. Particulars: Percent of Control; legend and method: 1 μM; read-out: CK1γ1 PoC @ 1 µM.
From the text: as §1

Test [13] concerns the target T10, ICK (Homo sapiens, UniProt Q9UPZ9).
T10 construct: purchased Eurofins DiscoverX Corporation
Description: scanMAX binding assay, ICK. Particulars: Percent of Control; legend and method: 1 μM; read-out: ICK PoC @ 1 µM.
From the text: as §1

The target in test [14] is T11, GSK3β (Homo sapiens, UniProt P49841).
T11 construct: purchased Eurofins DiscoverX Corporation
T11 sequence (P49841 whole entry): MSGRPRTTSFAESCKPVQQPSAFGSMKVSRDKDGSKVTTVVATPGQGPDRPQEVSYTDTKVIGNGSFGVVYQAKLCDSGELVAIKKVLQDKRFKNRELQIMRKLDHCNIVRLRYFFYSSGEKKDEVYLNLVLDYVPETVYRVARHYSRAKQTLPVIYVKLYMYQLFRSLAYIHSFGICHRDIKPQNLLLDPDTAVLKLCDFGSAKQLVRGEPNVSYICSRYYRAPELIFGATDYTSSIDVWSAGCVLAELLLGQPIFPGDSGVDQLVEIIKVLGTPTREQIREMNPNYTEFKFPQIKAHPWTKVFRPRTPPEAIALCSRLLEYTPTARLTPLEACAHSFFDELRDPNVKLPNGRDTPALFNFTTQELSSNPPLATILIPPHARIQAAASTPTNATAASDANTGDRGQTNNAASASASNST
Description: scanMAX binding assay, GSK3β. Particulars: Percent of Control; legend and method: 1 μM; read-out: GSK3β PoC @ 1 µM.
From the text: as §1

For test [15], the target named is T12, PCTK3 (Homo sapiens, UniProt Q07002).
T12 construct: purchased Eurofins DiscoverX Corporation
T12 sequence (Q07002 whole entry): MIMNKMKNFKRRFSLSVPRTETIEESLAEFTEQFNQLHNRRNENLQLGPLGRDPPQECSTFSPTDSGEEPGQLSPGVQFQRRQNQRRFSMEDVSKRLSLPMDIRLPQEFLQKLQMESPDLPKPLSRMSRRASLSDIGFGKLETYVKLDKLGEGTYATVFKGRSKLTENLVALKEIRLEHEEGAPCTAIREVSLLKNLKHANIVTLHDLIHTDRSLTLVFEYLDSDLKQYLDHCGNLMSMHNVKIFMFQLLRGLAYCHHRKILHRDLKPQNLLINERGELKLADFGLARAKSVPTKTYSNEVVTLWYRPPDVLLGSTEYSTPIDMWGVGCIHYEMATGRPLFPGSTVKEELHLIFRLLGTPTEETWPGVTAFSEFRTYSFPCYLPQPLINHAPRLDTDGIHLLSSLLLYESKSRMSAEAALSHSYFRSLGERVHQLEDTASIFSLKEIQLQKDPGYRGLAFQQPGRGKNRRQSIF
Description: scanMAX binding assay, PCTK3. Particulars: Percent of Control; legend and method: 1 μM; read-out: PCTK3 PoC @ 1 µM.
From the text: as §1

Test [16] concerns the target T4, CK1γ3. Description: scanMAX binding assay, CK1γ3. Conditions: Percent of Control; legend and method: 1 μM; read-out: CK1γ3 PoC @ 1 µM.
From the text: as §1

The target of test [17] is T13, CDKL5 (Homo sapiens, UniProt O76039).
T13 construct: purchased Eurofins DiscoverX Corporation
Description: scanMAX binding assay, CDKL5. Particulars: Percent of Control; legend and method: 1 μM; read-out: CDKL5 PoC @ 1 µM.
From the text: as §1

Test [18] addresses T14, DYRK2 (Homo sapiens, UniProt Q92630).
T14 construct: purchased Eurofins DiscoverX Corporation
Description: scanMAX binding assay, DYRK2. Conditions: Percent of Control; legend and method: 1 μM; read-out: DYRK2 PoC @ 1 µM.
From the text: as §1

The target in test [19] is T15, CK1γ2 (Homo sapiens, UniProt P78368).
T15 construct: purchased Eurofins
Description: scanMAX binding assay, CK1γ2. Particulars: Percent of Control; legend and method: 1 μM; read-out: CK1γ2 PoC @ 1 µM.
From the text: as §1

For test [20], the target named is T16, PCTK1 (Homo sapiens, UniProt Q00536).
T16 construct: purchased Eurofins DiscoverX Corporation
T16 sequence (Q00536 whole entry): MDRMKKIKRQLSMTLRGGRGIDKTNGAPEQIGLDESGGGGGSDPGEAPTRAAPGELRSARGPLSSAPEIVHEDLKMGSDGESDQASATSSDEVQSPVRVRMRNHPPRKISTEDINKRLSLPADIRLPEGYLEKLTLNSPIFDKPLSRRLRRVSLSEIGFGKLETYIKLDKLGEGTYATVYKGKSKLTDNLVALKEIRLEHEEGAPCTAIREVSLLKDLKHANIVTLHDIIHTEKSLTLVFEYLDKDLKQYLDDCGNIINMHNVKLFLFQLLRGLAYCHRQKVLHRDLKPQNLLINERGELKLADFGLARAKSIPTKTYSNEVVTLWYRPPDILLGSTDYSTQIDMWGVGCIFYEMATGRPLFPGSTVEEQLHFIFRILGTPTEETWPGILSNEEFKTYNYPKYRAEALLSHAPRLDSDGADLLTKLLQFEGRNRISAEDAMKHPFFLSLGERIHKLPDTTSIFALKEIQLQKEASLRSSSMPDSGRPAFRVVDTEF
Description: scanMAX binding assay, PCTK1. Particulars: Percent of Control; legend and method: 1 μM; read-out: PCTK1 PoC @ 1 µM.
From the text: as §1

In test [21] the target is T17, CDK7 (Homo sapiens, UniProt P50613).
T17 construct: purchased Eurofins DiscoverX Corporation
T17 sequence (P50613 whole entry): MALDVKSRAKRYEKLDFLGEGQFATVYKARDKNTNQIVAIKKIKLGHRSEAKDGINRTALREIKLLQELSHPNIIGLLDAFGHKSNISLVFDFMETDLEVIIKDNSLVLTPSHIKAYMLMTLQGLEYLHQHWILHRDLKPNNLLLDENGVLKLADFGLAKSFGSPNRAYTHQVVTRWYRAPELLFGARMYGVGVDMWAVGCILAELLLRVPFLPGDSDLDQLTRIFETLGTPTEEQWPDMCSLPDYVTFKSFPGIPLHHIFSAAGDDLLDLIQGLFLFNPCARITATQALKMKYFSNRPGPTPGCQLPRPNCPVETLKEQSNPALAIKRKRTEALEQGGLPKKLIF
Description: scanMAX binding assay, CDK7. Particulars: Percent of Control; legend and method: 1 μM; read-out: CDK7 PoC @ 1 µM.
From the text: as §1

The target in test [22] is T18, GSK3β (NLuc-GSK3β) (Homo sapiens, UniProt P49841).
T18 construct: host or cells: HEK293T
T18 sequence (P49841 whole entry): as the sequence (P49841 whole entry) above
Description: NanoBRET cellular target engagement assay, NLuc-GSK3β in HEK293T cells. In kind it is cell-based. Conditions: live HEK293T cells, 0.063 μM tracer K-8; read-out: NL-GSK3β NanoBRET IC50. How it is done: (§3) HEK293T cells (hypotriploid, fetal) were purchased from ATCC. These cells were grown in Dulbecco’s modified Eagle’s medium (Gibco) supplemented with 10% (v/v) fetal bovine serum (Corning). They were incubated in 5% CO2 at 37 °C and passaged every 72 h with trypsin and not allowed to reach confluency. Constructs for NanoBRET measurements of CK1γ2 (NLuc-CK1γ2) and GSK3β (NLuc-GSK3β) were kindly provided by Promega. NanoBRET assays were carried out as described previously ([74]). Preferred NLuc orientations, both N-terminal in this case, are indicated in parentheses after each construct. Assays were carried out in dose–response as described by the manufacturer using 0.5 μM of tracer K-10 for CK1γ2 and 0.063 μM of tracer K-8 for GSK3β. Two biological replicates were executed with two technical replicates to produce the graphs with error bars shown in Figures 6E, 7E, 8, A and B. Tracer titration curves for these kinases that motivated our tracer selection and working concentration can be found on the Promega website.
For orientation: Bioluminescence resonance energy transfer reports proximity on the nanometre scale.

Test [23] has as its target T19, CK1γ2 (NLuc-CK1γ2) (Homo sapiens, UniProt P78368).
T19 construct: host or cells: HEK293T
Description: NanoBRET cellular target engagement assay, NLuc-CK1γ2 in HEK293T cells. In kind it is cell-based. Particulars: live HEK293T cells, 0.5 μM tracer K-10. As for the experimental part: as §3

Values joined by “and” are separate entries in the source; they are usually repeats but may differ in a detail not shown here. Equal entries are not always repeated. Where only a bound is given, the exact number is not on record here.

T4 sequence (Q9Y6M4 whole entry): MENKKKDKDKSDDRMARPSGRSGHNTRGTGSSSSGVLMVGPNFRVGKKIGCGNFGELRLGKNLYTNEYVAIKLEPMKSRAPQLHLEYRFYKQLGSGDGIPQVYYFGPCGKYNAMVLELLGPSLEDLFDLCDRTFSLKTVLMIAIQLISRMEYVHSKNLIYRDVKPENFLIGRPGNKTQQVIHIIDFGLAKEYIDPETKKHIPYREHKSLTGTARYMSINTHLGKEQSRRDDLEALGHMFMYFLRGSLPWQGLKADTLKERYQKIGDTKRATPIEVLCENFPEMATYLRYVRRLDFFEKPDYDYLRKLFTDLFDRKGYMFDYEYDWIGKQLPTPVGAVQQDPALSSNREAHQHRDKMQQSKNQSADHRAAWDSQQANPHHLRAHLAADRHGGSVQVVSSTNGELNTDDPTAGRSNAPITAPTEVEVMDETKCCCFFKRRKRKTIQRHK
T14 sequence (Q92630 whole entry): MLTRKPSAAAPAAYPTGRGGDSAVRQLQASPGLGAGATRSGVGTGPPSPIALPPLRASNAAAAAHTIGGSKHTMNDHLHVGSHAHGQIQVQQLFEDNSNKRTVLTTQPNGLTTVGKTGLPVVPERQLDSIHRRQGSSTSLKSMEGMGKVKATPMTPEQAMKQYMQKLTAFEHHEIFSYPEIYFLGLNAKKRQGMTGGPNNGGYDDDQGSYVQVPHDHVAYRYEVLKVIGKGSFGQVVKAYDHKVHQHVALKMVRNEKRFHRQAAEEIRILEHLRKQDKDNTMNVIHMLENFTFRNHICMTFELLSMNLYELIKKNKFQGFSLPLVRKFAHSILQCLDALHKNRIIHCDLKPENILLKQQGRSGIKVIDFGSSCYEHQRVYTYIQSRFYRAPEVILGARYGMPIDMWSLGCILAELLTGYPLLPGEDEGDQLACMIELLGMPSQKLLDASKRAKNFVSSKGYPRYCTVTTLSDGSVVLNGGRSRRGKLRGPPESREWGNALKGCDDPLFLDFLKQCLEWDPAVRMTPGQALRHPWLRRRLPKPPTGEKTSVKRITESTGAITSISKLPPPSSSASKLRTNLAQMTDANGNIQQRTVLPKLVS

ERBB2: in test [1], the “Fold over control siRNA” value is on record as 3.138 and the “Average BAR firefly Luciferase (Raw)” value was 83000.
The term IC50 denotes the concentration at which inhibition is half-maximal. As for `CN(C)CC(=O)Nc1n[nH]c2ccc(-c3cn(Cc4ccccc4)nn3)cc12` [AKI00000062a], the remaining binding at 1 µM stood at 0% in [2]; 1.9% in test [4]; 0.9% in [6]; 2.5% in test [7]; 3.5% in test [8]; 1.4% in test [9]. Moreover, the remaining binding at 1 µM in test [10] came to 6%; in [12], 5.2%; in test [13], 1.6%; in test [14] it was 0.4%; in test [15] it was 1.2%; in [16] it was 3.3%. Further, the remaining binding at 1 µM was found to be 0.2% in test [17]; 7.2% in test [18]; 1% in test [19]; 0.2% in test [20]; 1.2% in test [21]. Besides, the IC50 is ≤ 0.275 µM and 0.275 µM in test [3]; ≤ 0.275 µM and 0.168 µM in [5]. The “activation of the BAR reporter” value in [11] was “robustly activated”.
In the case of EPHA2, in test [1], the “Fold over control siRNA” value is given as 0.4994 and the “Average BAR firefly Luciferase (Raw)” value is 13210.
With `Cc1cc(-c2ccc(CC(=O)Nc3ccc(-c4cccnc4)cc3)cc2)ccn1` [C59, reference compound], the “BAR activation by CK1γ3 overexpression in the absence of WNT3A CM” value in test [11] (HEK293T B/R cells transfected 14 h, 10 μM C59 for 18 h) was “blocked this activation”.
As for `Cc1cc(Nc2cc(C3CC3)[nH]n2)nc(Nc2ccc(CC#N)cc2)n1` [APY69, reference compound], the IC50 in [22] is 0.00023 µM. Besides, the “NL-CK1γ2 NanoBRET IC50” value in test [23] is “inactive”.
On to `Cc1c[nH]c(-c2cnc(NCCNc3ccc(C#N)cn3)nc2-c2ccc(Cl)cc2Cl)n1` [CHIR99021, reference compound], for which the “activation of the BAR reporter” value in [11] was “robustly activated”.
